Legend:
Experiment in all cases: relative viability (nuclei count vs DMSO), 5 days (fraction); higher = more cells survive
Dabrafenib + Lapatinib = compound: CC(C)(C)c1nc(-c2cccc(NS(=O)(=O)c3c(F)cccc3F)c2F)c(-c2ccnc(N)n2)s1 [Dabrafenib] + CS(=O)(=O)CCNCc1ccc(-c2ccc3ncnc(Nc4ccc(OCc5cccc(F)c5)c(Cl)c4)c3c2)o1 [Lapatinib] (partner 2 µM)
Procedure, shortened: (§1)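 Lung cancer cell lines in 1536-well plates were dosed by pin tool the day after seeding, either with one drug alone or with a fixed anchor-drug dose plus five library-drug doses (not always all listed) in √10 steps. After 5 days, cells were fixed and their nuclei stained in one step (final 0.05% Triton X-100, 1% formaldehyde, 1 ug/ml Hoechst), then counted on 4× images. Relative viability is the nuclei count in treated wells divided by that in vehicle wells. Values are medians of duplicate plates.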

VX-702 + Olaparib = compound: NC(=O)c1ccc(N(C(N)=O)c2c(F)cccc2F)nc1-c1ccc(F)cc1F [VX-702] + O=C(c1cc(Cc2n[nH]c(=O)c3ccccc23)ccc1F)N1CCN(C(=O)C2CC2)CC1 [Olaparib] (partner 8 µM)
Procedure, shortened: as §1

VX-702 + Tozasertib = compound: NC(=O)c1ccc(N(C(N)=O)c2c(F)cccc2F)nc1-c1ccc(F)cc1F [VX-702] + Cc1cc(Nc2cc(N3CCN(C)CC3)nc(Sc3ccc(NC(=O)C4CC4)cc3)n2)n[nH]1 [Tozasertib] (partner 0.1 µM)
Procedure, shortened: as §1

VX-702 + Alpelisib = compound: NC(=O)c1ccc(N(C(N)=O)c2c(F)cccc2F)nc1-c1ccc(F)cc1F [VX-702] + Cc1nc(NC(=O)N2CCC[C@H]2C(N)=O)sc1-c1ccnc(C(C)(C)C(F)(F)F)c1 [Alpelisib] (partner 2 µM)
Procedure, shortened: as §1

Cell Line | relative viability (Dabrafenib + Lapatinib; first compound 0.003 µM) | relative viability (Dabrafenib + Lapatinib; first compound 0.009487 µM) | relative viability (Dabrafenib + Lapatinib; first compound 0.03 µM) | relative viability (Dabrafenib + Lapatinib; first compound 0.09487 µM) | relative viability (Dabrafenib + Lapatinib; first compound 0.3 µM) | relative viability (VX-702 + Olaparib; first compound 0.02 µM) | relative viability (VX-702 + Olaparib; first compound 0.2 µM) | relative viability (VX-702 + Olaparib; first compound 0.6325 µM) | relative viability (VX-702 + Olaparib; first compound 2 µM) | relative viability (VX-702 + Tozasertib; first compound 0.02 µM) | relative viability (VX-702 + Tozasertib; first compound 0.2 µM) | relative viability (VX-702 + Tozasertib; first compound 0.6325 µM) | relative viability (VX-702 + Tozasertib; first compound 2 µM) | relative viability (VX-702 + Alpelisib; first compound 0.02 µM) | relative viability (VX-702 + Alpelisib; first compound 0.2 µM) | relative viability (VX-702 + Alpelisib; first compound 0.6325 µM) | relative viability (VX-702 + Alpelisib; first compound 2 µM)
NCI-H1975 | 0.914 | 0.858 | 0.881 | 0.84 | 0.786 | 0.792 | 0.746 | 0.809 | 1.1 | 0.792 | 0.724 | 0.713 | 0.934 | 0.738 | 0.664 | 0.716 | 0.869
COR-L23 | 0.984 | 1.1 | 0.92 | 0.874 | 0.913 | 0.351 | 0.339 | 0.379 | 0.386 | 0.202 | 0.231 | 0.171 | 0.244 | 0.947 | 0.831 | 0.841 | 0.986
NCI-H460 | 1.04 | 1.03 | 1.05 | 0.925 | 0.83 | 0.428 | 0.438 | 0.548 | 0.26 | 0.665 | 0.54 | 0.614 | 0.159 | 0.465 | 0.46 | 0.448 | 0.487
NCI-H838 | 0.816 | 1.17 | 0.871 | 0.855 | 1.1 | 0.772 | 0.715 | 0.827 | 0.926 | 0.233 | 0.285 | 0.303 | 0.291 | 0.965 | 0.893 | 0.95 | 1.23
NCI-H2087 | 0.689 | 1.08 | 0.769 | 0.77 | 0.785 | 0.552 | 0.58 | 0.669 | 0.709 | 0.277 | 0.236 | 0.284 | 0.281 | 1.2 | 1.04 | 1.04 | 1.19
NCI-H596 | 0.994 | 1.11 | 0.814 | 1.04 | 1.05 | 0.66 | 0.714 | 0.898 | 0.685 | 0.8 | 0.859 | 0.87 | 1.09 | 0.437 | 0.436 | 0.509 | 0.426
HCC-827 | 0.133 | 0.228 | 0.185 | 0.185 | 0.186 | 0.648 | 0.603 | 0.59 | 0.562 | 0.427 | 0.396 | 0.387 | 0.393 | 0.982 | 1.04 | 0.884 | 0.684
NCI-H1755 | 0.957 | 1.07 | 0.928 | 1 | 0.986 | 0.911 | 0.897 | 0.799 | 0.876 | 0.599 | 0.592 | 0.597 | 0.653 | 0.907 | 0.891 | 0.925 | 1.01
SK-LU-1 |  | 0.804 | 0.653 | 0.664 | 0.719 | 0.504 | 0.435 | 0.526 | 0.567 | 0.337 | 0.315 | 0.311 | 0.476 | 1.08 | 0.972 | 1.04 | 1.34
NCI-H2347 | 0.631 | 1.02 | 0.918 | 0.897 | 0.89 | 0.498 | 0.467 | 0.638 | 0.456 | 0.592 |  | 0.505 | 0.521 | 1.01 | 1.12 | 1.05 | 1.14
NCI-H2023 | 0.617 | 1.09 | 0.979 | 0.79 | 0.961 | 0.459 | 0.461 | 0.552 | 0.637 | 0.264 | 0.308 | 0.296 | 0.38 | 0.55 | 0.606 | 0.483 | 0.561
NCI-H1944 | 0.835 | 0.924 | 0.613 | 0.898 | 0.788 | 0.413 | 0.435 | 0.432 | 0.403 | 0.252 | 0.245 | 0.252 | 0.253 | 0.76 | 0.775 | 0.818 | 0.605
NCI-H2126 | 0.735 | 0.783 | 0.75 | 0.842 | 0.89 | 0.901 | 0.91 | 0.945 | 0.98 | 0.816 | 0.859 | 0.783 | 1.04 | 0.708 | 0.708 | 0.718 | 0.698
NCI-H2170 | 0.263 | 0.265 | 0.268 | 0.291 | 0.311 | 0.611 | 0.546 | 0.631 | 0.676 | 0.722 | 0.696 | 0.753 | 0.871 | 0.801 | 0.61 | 0.757 | 0.869
SW 1573 | 0.883 | 0.864 | 1.17 | 1.1 | 1.11 | 0.495 | 0.445 | 0.438 | 0.448 | 0.145 | 0.168 | 0.173 | 0.243 | 0.789 | 0.64 | 0.759 | 0.652
EPLC-272H |  | 0.882 | 1 | 0.765 | 1.18 | 0.856 | 1.07 | 0.799 | 1.07 | 0.345 | 0.235 | 0.418 | 0.289 | 0.982 | 0.752 | 0.965 | 1.01
NCI-H1651 | 0.849 | 0.818 | 0.84 | 0.938 | 0.834 | 0.178 | 0.174 | 0.183 | 0.151 | 0.728 | 0.753 | 0.624 | 0.829 | 0.928 | 0.948 | 0.882 | 1.16
NCI-H23 |  | 1.21 | 1.08 | 0.712 | 1.02 | 0.372 | 0.254 | 0.329 | 0.402 | 0.446 | 0.334 | 0.37 | 0.486 | 0.659 | 0.65 | 0.683 | 0.998
NCI-H727 |  | 0.811 | 0.658 | 0.755 | 0.817 | 0.67 | 0.789 | 0.72 | 0.555 | 0.738 | 0.809 | 0.572 | 0.665 | 0.504 | 0.552 | 0.621 | 0.634
